Patent US20100267561A1, “HERBICIDAL PYRIDAZINONE DERIVATIVES” (priority 2007, published 2010)

Tests used:
Format in all cases: in vivo
[1] = system: barnyardgrass (Echinochloa crus-galli); assay: Test B flooded paddy test plant response; conditions: Flood (flooded paddy test), scale 0 to 100, 0 no effect, 100 complete control
In short: (§1)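 Paddy-water application to 2-leaf plants in pots held under 3 cm of flooding; response is a 0–100 visual control rating against controls after 13 to 15 days, and a dash marks a missing result.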

[2] = system: rice (Oryza sativa); assay: Test B flooded paddy test plant response; conditions: Flood (flooded paddy test), scale 0 to 100, 0 no effect, 100 complete control
In short: as §1

[3] = system: large crabgrass (Digitaria sanguinalis); assay: Test B pre-/postemergence plant response; conditions: for Crabgrass, Large plant response rating: 8 g ai/ha
In short: (§2)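 Preemergence and postemergence (plants 2-18 cm, 1- to 4-leaf stage) applications used test chemicals in a non-phytotoxic solvent with surfactant. Plants were held in a greenhouse 13 to 15 days, then rated visually against controls on a 0-100 scale (0 no effect, 100 complete control).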

[4] = system: Italian ryegrass (Lolium multiflorum); assay: Test B pre-/postemergence plant response; conditions: for Ryegrass, Italian plant response rating: 8 g ai/ha
In short: as §2

[5] = system: eastern black (E.B.) nightshade (Solanum ptycanthum); assay: Test B pre-/postemergence plant response; conditions: Preemergence
In short: as §2

[6] = system: catchweed bedstraw (Galium aparine); assay: Test B pre-/postemergence plant response; conditions: Preemergence
In short: as §2

[7] = system: common ragweed (Ambrosia elation); assay: Test B pre-/postemergence plant response; conditions: for Ragweed plant response rating: 8 g ai/ha
In short: as §2

[8] = system: blackgrass (Alopecurus myosuroides); assay: Test B pre-/postemergence plant response; conditions: for Blackgrass plant response rating: 8 g ai/ha
In short: as §2

[9] = system: wild oat (Avena fatua); assay: Test B pre-/postemergence plant response; conditions: for Oat, Wild plant response rating: 8 g ai/ha
In short: as §2

[10] = system: pigweed (Amaranthus retroflexus); assay: Test B pre-/postemergence plant response; conditions: for Pigweed plant response rating: 8 g ai/ha
In short: as §2

[11] = system: johnsongrass (Sorghum halepense); assay: Test B pre-/postemergence plant response; conditions: for Johnsongrass plant response rating: 8 g ai/ha
In short: as §2

[12] = system: common (oilseed) sunflower (Helianthus annuus); assay: Test B pre-/postemergence plant response; conditions: Preemergence
In short: as §2

[13] = system: downy bromegrass (Bromus tectorum); assay: Test B pre-/postemergence plant response; conditions: for Bromegrass, Downy plant response rating: 8 g ai/ha
In short: as §2

[14] = system: morningglory (Ipomoea coccinea); assay: Test B pre-/postemergence plant response; conditions: for Morningglory plant response rating: 8 g ai/ha
In short: as §2

[15] = Postemergence, 16 g ai/ha, scale 0 to 100
[16] = Postemergence, 31 g ai/ha, scale 0 to 100, 0 no effect, 100 complete control
[17] = Postemergence, 62 g ai/ha, scale 0 to 100
[18] = Preemergence, 16 g ai/ha, scale 0 to 100 (0 no effect, 100 complete control)
[19] = Preemergence, 31 g ai/ha, 0 to 100 scale, 0 no effect, 100 complete control
[20] = Preemergence, 62 g ai/ha, scale 0 to 100
[21] = 16 g ai/ha, scale 0 to 100 (0 no effect, 100 complete control)
[22] = 31 g ai/ha, 0 to 100 scale, 0 no effect, 100 complete control

## CCc1cc(-c2ccc(F)cc2)nn1-c1c(O)cnn(C)c1=O [Compound 25]
[1]; 62 g ai/ha
  Plant response rating, Barnyardgrass: 0
[1]; 250 g ai/ha
  Plant response rating, Barnyardgrass: 0
[2]; 62 g ai/ha
  Plant response rating, Rice: 0
[2]; 250 g ai/ha
  Plant response rating, Rice: 0
[3]; postemergence, 0-100 scale
  Crabgrass, Large plant response rating: 5
[3]; [15]
  Plant response rating, Crabgrass, Large: 60
[3]; [16]
  Plant response rating, Crabgrass, Large: 75
[3]; [17]
  Plant response rating, Crabgrass, Large: 80
[3]; [18]
  Plant response rating, Crabgrass, Large: 20
[3]; [19]
  Plant response rating, Crabgrass, Large: 60
[3]; [20]
  Plant response rating, Crabgrass, Large: 80
[3]; Preemergence, scale 0 to 100
  Crabgrass, Large plant response rating: 0
[4]; postemergence, 0-100 scale
  Ryegrass, Italian plant response rating: 60
[4]; [15]
  Plant response rating, Ryegrass, Italian: 80
[4]; [16]
  Plant response rating, Ryegrass, Italian: 85
[4]; [17]
  Plant response rating, Ryegrass, Italian: 95
[4]; [18]
  Plant response rating, Ryegrass, Italian: 50
[4]; [19]
  Plant response rating, Ryegrass, Italian: 90
[4]; [20]
  Plant response rating, Ryegrass, Italian: 100
[4]; Preemergence, scale 0 to 100
  Ryegrass, Italian plant response rating: 50
[5]; [21]
  Plant response rating, Nightshade, E. B.: 0
[5]; [22]
  Plant response rating, Nightshade, E. B.: 0
[5]; 62 g ai/ha, scale 0 to 100
  Plant response rating, Nightshade, E. B.: 0
[5]; 8 g ai/ha, scale 0 to 100
  Nightshade, E. B. plant response rating: 0
[6]; [21]
  Plant response rating, Galium: 0
[6]; [22]
  Plant response rating, Galium: 0
[6]; 62 g ai/ha, scale 0 to 100
  Plant response rating, Galium: 0
[6]; 8 g ai/ha, scale 0 to 100
  Galium plant response rating: 0
[7]; postemergence, 0-100 scale
  Ragweed plant response rating: 0
[7]; [15]
  Plant response rating, Ragweed: 0
[7]; [16]
  Plant response rating, Ragweed: 0
[7]; [17]
  Plant response rating, Ragweed: 0
[7]; [18]
  Plant response rating, Ragweed: 0
[7]; [19]
  Plant response rating, Ragweed: 0
[7]; [20]
  Plant response rating, Ragweed: 0
[7]; Preemergence, scale 0 to 100
  Ragweed plant response rating: 0
[8]; postemergence, 0-100 scale
  Blackgrass plant response rating: 0
[8]; [15]
  Plant response rating, Blackgrass: 40
[8]; [16]
  Plant response rating, Blackgrass: 75
[8]; [17]
  Plant response rating, Blackgrass: 95
[8]; [20]
  Plant response rating, Blackgrass: 90
[8]; Preemergence, scale 0 to 100
  Blackgrass plant response rating: 70
[9]; postemergence, 0-100 scale
  Oat, Wild plant response rating: 25
[9]; [15]
  Plant response rating, Oat, Wild: 55
[9]; [16]
  Plant response rating, Oat, Wild: 70
[9]; [17]
  Plant response rating, Oat, Wild: 95
[9]; [18]
  Plant response rating, Oat, Wild: 0
[9]; [19]
  Plant response rating, Oat, Wild: 0
[9]; [20]
  Plant response rating, Oat, Wild: 60
[9]; Preemergence, scale 0 to 100
  Oat, Wild plant response rating: 0
[10]; postemergence, 0-100 scale
  Pigweed plant response rating: 0
[10]; [15]
  Plant response rating, Pigweed: 0
[10]; [16]
  Plant response rating, Pigweed: 0
[10]; [17]
  Plant response rating, Pigweed: 10
[10]; [18]
  Plant response rating, Pigweed: 0
[10]; [19]
  Plant response rating, Pigweed: 0
[10]; [20]
  Plant response rating, Pigweed: 80
[10]; Preemergence, scale 0 to 100
  Pigweed plant response rating: 0
[11]; postemergence, 0-100 scale
  Johnsongrass plant response rating: 0
[11]; [15]
  Plant response rating, Johnsongrass: 0
[11]; [16]
  Plant response rating, Johnsongrass: 0
[11]; [17]
  Plant response rating, Johnsongrass: 30
[11]; [18]
  Plant response rating, Johnsongrass: 0
[11]; [19]
  Plant response rating, Johnsongrass: 0
[11]; [20]
  Plant response rating, Johnsongrass: 0
[11]; Preemergence, scale 0 to 100
  Johnsongrass plant response rating: 0
[12]; [21]
  Plant response rating, Sunflower: 0
[12]; [22]
  Plant response rating, Sunflower: 0
[12]; 62 g ai/ha, scale 0 to 100
  Plant response rating, Sunflower: 0
[12]; 8 g ai/ha, scale 0 to 100
  Sunflower plant response rating: 0
[13]; postemergence, 0-100 scale
  Bromegrass, Downy plant response rating: 0
[13]; [15]
  Plant response rating, Bromegrass, Downy: 0
[13]; [16]
  Plant response rating, Bromegrass, Downy: 10
[13]; [17]
  Plant response rating, Bromegrass, Downy: 15
[13]; [18]
  Plant response rating, Bromegrass, Downy: 0
[13]; [19]
  Plant response rating, Bromegrass, Downy: 0
[13]; [20]
  Plant response rating, Bromegrass, Downy: 0
[13]; Preemergence, scale 0 to 100
  Bromegrass, Downy plant response rating: 0
[14]; postemergence, 0-100 scale
  Morningglory plant response rating: 0
[14]; [15]
  Plant response rating, Morningglory: 0
[14]; [16]
  Plant response rating, Morningglory: 0
[14]; [17]
  Plant response rating, Morningglory: 20
[14]; [18]
  Plant response rating, Morningglory: 0
[14]; [19]
  Plant response rating, Morningglory: 0
[14]; [20]
  Plant response rating, Morningglory: 0
[14]; Preemergence, scale 0 to 100
  Morningglory plant response rating: 0
